From EPA's ToxValDB 9.5

How the values were obtained:
[1] = tested on: Mus musculus
[2] = tested on: Rattus norvegicus; conditions: developmental; duration: 14 days; oral; gavage; M/F; Crl:CD(SD); generation: F1; F1: Developmental: Bone: Skeletal Malformation + F1: Developmental: Whole Body: Nursing Behavior + F1: Developmental: Whole Body: Pup Weight…
[3] = developmental, duration: 54 days, oral, gavage, M/F, CD1, generation: F1, F1: Developmental: Eye: Eye Opening + F1: Developmental: Liver: Liver, Discolored + F1: Developmental: Whole Body: Fetus Or Pup/Neonate, …
[4] = reproduction developmental, duration: 14 days, oral, gavage, F, Crl:CD-1 (ICR) BR, generation: P0, P0: Blood: Hematocrit (HCT) + P0: Blood: Hemoglobin (HGB) + P0: Blood: Lymphocyte + P0: Blood: Monocytes + P0: Blood: Neutrophils + P0: …
[5] = reproduction developmental, duration: 14 days, oral, gavage, F, Crl:CD-1 (ICR) BR, generation: P0, P0: Liver: Hepatocellular Hypertrophy
[6] = reproduction developmental, duration: 14 days, oral, gavage, M/F, Crl:CD-1 (ICR) BR, generation: P0, P0: Eye: Eye Opening + P0: Whole Body: Lactation Index + P0: Whole Body: Pup Mortality + P0: Whole Body: Pup Weight Relative to Litter
[7] = reproduction developmental, duration: 54 days, oral, gavage, F, CD1, generation: P0, P0: Developmental: Uterus: Implantation + P0: Developmental: Whole Body: No. Male Pups per No. of Pups Sexed
[8] = reproduction developmental, duration: 54 days, oral, gavage, F, CD1, generation: P0, P0: Developmental: Uterus: Implantation + P0: Developmental: Whole Body: No. Male Pups per No. of Pups Sexed + P0: Reproductive: Whole Body…
[9] = reproduction developmental, duration: 109 days, oral, gavage, M, Crl:CD-1 (ICR) BR, generation: P0, P0: Blood: Hematocrit (HCT) + P0: Blood: Hemoglobin (HGB) + P0: Blood: Sorbitol Dehydrogenase (SDH), Blood + P0: Kidney: Blood Urea Nitrogen…
[10] = reproduction developmental, duration: 109 days, oral, gavage, M, Crl:CD-1 (ICR) BR, generation: P0, P0: Hepatic: Liver: Alanine Aminotransferase (ALT), Blood + P0: Hepatic: Liver: Alkaline Phosphatase (ALP), Blood + P0: Hepatic: Liver: …
[11] = reproduction developmental, duration: 109 days, oral, gavage, M, Crl:CD-1 (ICR) BR, generation: P0, P0: Liver: Hepatocellular Hypertrophy
[12] = reproduction developmental, multiple, M, Crl:CD-1 (ICR) BR, generation: F1, F1: Reproductive: Prepuce: Preputial Separation + F1: Whole Body: Whole Body: Body Weight Change + F1: Whole Body: Whole Body: Feed …
[13] = reproduction developmental, multiple, M, Crl:CD-1 (ICR) BR, generation: F1, F1: Whole Body: Whole Body: Body Weight Change + F1: Whole Body: Whole Body: Feed Consumption, Absolute
[14] = reproduction developmental, oral, gavage, F, CD1, generation: P0, P0: Blood: Hematocrit (HCT) + P0: Blood: Hemoglobin (HGB) + P0: Blood: Lymphocyte + P0: Blood: Monocytes + P0: Blood: Neutrophils + P0: …
[15] = reproduction developmental, oral, gavage, F, CD1, generation: P0, P0: Liver: Alanine Aminotransferase (ALT), Blood + P0: Liver: Alkaline Phosphatase (ALP), Blood + P0: Liver: Aspartate Aminotransferase (AST…
[16] = reproduction developmental, oral, gavage, F, Crl:CD-1 (ICR) BR, generation: P0, P0: Hepatic: Liver: Alanine Aminotransferase (ALT), Blood + P0: Hepatic: Liver: Alkaline Phosphatase (ALP), Blood + P0: Hepatic: Liver: …
[17] = reproduction developmental, oral, gavage, M, CD1, generation: P0, P0: Blood: Cholesterol (CHOL), Total + P0: Blood: Hematocrit (HCT) + P0: Blood: Hemoglobin (HGB) + P0: Blood: Lymphocyte + P0: Blood: …

NEL ([1]; developmental, oral, gavage, M/F, CD1, generation: F1, F1: Eye: Eye Opening + F1: Liver: Liver, Discolored + F1: Prepuce or Vagina: Preputial Separation or Vaginal Patency + F1: Whole Body: Fetus…): 25 mg/kg-day
LEL ([1]; developmental, oral, gavage, M/F, CD1, generation: F1, F1: Eye: Eye Opening + F1: Liver: Liver, Discolored + F1: Whole Body: Fetus Or Pup/Neonate, Small + F1: Whole Body: Lactation Index + F1: …): 100 mg/kg-day
LEL [1, 4]: 100 mg/kg-day
NEL [1, 4]: 25 mg/kg-day
NEL ([1]; reproduction developmental, duration: 14 days, oral, gavage, F, Crl:CD-1 (ICR) BR, generation: P0, P0: Kidney: Kidney Weight, Absolute + P0: Liver: Liver Weight, Absolute + P0: Liver: Total Bilirubin (TBILI), Blood + P0: Liver: Total …): 100 mg/kg-day
LEL [1, 9]: 100 mg/kg-day
NEL [1, 9]: 25 mg/kg-day
NEL ([1]; reproduction developmental, duration: 109 days, oral, gavage, M, Crl:CD-1 (ICR) BR, generation: P0, P0: Blood: Lymphocyte + P0: Blood: Monocytes + P0: Blood: Neutrophils + P0: Blood: Red Blood Cell (RBC) + P0: Blood: Reticulocytes + P0: …): 100 mg/kg-day
NEL ([1]; reproduction developmental, oral, gavage, F, CD1, generation: P0, P0: Blood: Calcium (CA), Blood + P0: Blood: Chloride (CL), Blood + P0: Blood: Globulin (G), Blood + P0: Blood: Glucose (GLU), Blood + P0: …): 100 mg/kg-day
LEL [1, 14]: 100 mg/kg-day
NEL [1, 14]: 25 mg/kg-day
NEL ([1]; reproduction developmental, oral, gavage, F, CD1, generation: P0, P0: Uterus: Implantation + P0: Whole Body: Fertility Index + P0: Whole Body: Gestation Index + P0: Whole Body: Male Pups per Pups Sexed + P0…): 100 mg/kg-day
NEL ([1]; reproduction developmental, oral, gavage, M, CD1, generation: P0, P0: Blood: Calcium (CA), Blood + P0: Blood: Globulin (G) + P0: Blood: Glucose (GLU) + P0: Blood: Inorganic Phosphorous (PHOS) + P0: Blood: …): 100 mg/kg-day
LEL [1, 17]: 100 mg/kg-day
NEL [1, 17]: 25 mg/kg-day
NEL ([1]; reproduction developmental, oral, gavage, M, CD1, generation: P0, P0: Whole Body: Fertility Index + P0: Whole Body: Percent Mating): 100 mg/kg-day
SMILES: OCCC(F)(F)C(F)(F)C(F)(F)C(F)(F)C(F)(F)C(F)(F)F [2-(Perfluorohexyl)ethanol]
LOAEL [1, 3]: 120 mg/kg-day
NOAEL [1, 3]: 25 mg/kg-day
LEL [1, 5]: 5 mg/kg-day
NEL [1, 5]: 1 mg/kg-day
LEL [1, 6]: 100 mg/kg-day
NEL [1, 6]: 25 mg/kg-day
NEL ([1]; reproduction developmental, duration: 14 days, oral, gavage, M/F, Crl:CD-1 (ICR) BR, generation: P0, P0: Whole Body: Live Pups Born + P0: Whole Body: Male Pups per Pups Sexed + P0: Whole Body: Viability Index): 100 mg/kg-day
NEL ([1]; reproduction developmental, duration: 42 days, multiple, F, Crl:CD-1 (ICR) BR, generation: P0, P0: Vagina: Vaginal Patency + P0: Whole Body: Body Weight Change + P0: Whole Body: Feed Consumption, Absolute): 25 mg/kg-day
NEL ([1]; reproduction developmental, duration: 42 days, multiple, M, Crl:CD-1 (ICR) BR, generation: P0, P0: Prepuce: Preputial Separation + P0: Whole Body: Body Weight Change + P0: Whole Body: Feed Consumption, Absolute): 25 mg/kg-day
LOAEL [1, 7]: 120 mg/kg-day
NOAEL [1, 7]: 25 mg/kg-day
LOAEL [1, 8]: 120 mg/kg-day
NOAEL [1, 8]: 25 mg/kg-day
NOAEL ([1]; reproduction developmental, duration: 54 days, oral, gavage, F, CD1, generation: P0, P0: Reproductive: Whole Body: Fertility Index + P0: Reproductive: Whole Body: Gestation Index + P0: Reproductive: Whole Body: Percent Mating): 120 mg/kg-day
NOAEL ([1]; reproduction developmental, duration: 54 days, oral, gavage, M/F, CD1, generation: F1, F1: Reproductive: Prepuce or Vagina: Preputial Separation or Vaginal Patency): 120 mg/kg-day
LOAEL ([1]; reproduction developmental, duration: 54 days, oral, gavage, M, CD1, generation: P0, P0: Reproductive: Whole Body: Fertility Index + P0: Reproductive: Whole Body: Percent Mating): 120 mg/kg-day
LOAEL [1, 10]: 5 mg/kg-day
NOAEL [1, 10]: 1 mg/kg-day
LEL [1, 11]: 5 mg/kg-day
NEL [1, 11]: 1 mg/kg-day
NOAEL ([1]; reproduction developmental, duration: 109 days, oral, gavage, M, Crl:CD-1 (ICR) BR, generation: P0, P0: Reproductive: Epididymis: Epididymis Weight, Absolute + P0: Reproductive: Epididymis: Epididymis Weight, Relative + P0: Reproductive: …): 100 mg/kg-day
NOAEL ([1]; reproduction developmental, multiple, M, Crl:CD-1 (ICR) BR, generation: F1, F1: Reproductive: Prepuce: Preputial Separation): 100 mg/kg-day
LOAEL [1, 12]: 5 mg/kg-day
NOAEL [1, 12]: 1 mg/kg-day
LOAEL [1, 13]: 100 mg/kg-day
NOAEL [1, 13]: 25 mg/kg-day
LEL [1, 15]: 25 mg/kg-day
NEL [1, 15]: 5 mg/kg-day
LOAEL [1, 16]: 5 mg/kg-day
NOAEL [1, 16]: 1 mg/kg-day
NEL ([1]; reproduction developmental, oral, gavage, M/F, CD1, generation: F1, F1: Whole Body: Live Pups Born + F1: Whole Body: Viability Index): 100 mg/kg-day
LOAEL [2]: 225 mg/kg-day
